Results reported in patent publication US6664231B1, “Anti-fungal peptides” (priority 1993, dated 2003).
Square brackets hold non-standard residues; d marks the D form. Peptide text beside a SMILES is read from it. d2Nal = N[C@H](Cc1ccc2ccccc2c1)C(=O)O; NMeL = CN[C@@H](CC(C)C)C(=O)O; Tle = CC(C)(C)[C@H](N)C(=O)O; NMeV = CN[C@H](C(=O)O)C(C)C; Abu = CC[C@H](N)C(=O)O; Aib = CC(C)(N)C(=O)O; GABA = NCCCC(=O)O; βAla = NCCC(=O)O; Sar = CNCC(=O)O

These compounds were tested on C. albicans (CA-1, Strain SLU-1) (assay: Radial diffusion assay). Conditions: pmoles of peptide added to well to achieve a 30 mm^2 zone, PROBIT analysis; crude or purified (P′) peptide.
Type: cell-based, Candida albicans
How it was run: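 Peptides, serially diluted 2-fold in D-PBS (top ~1 mg/mL), diffused 3 h at 37° C into pH 7.4 phosphate-buffered agarose seeded with 1×10^6 CFU/mL yeast, before overnight growth under a 6% Sabouraud overlayer. Net inhibition zones measured after Coomassie staining; PROBIT fit of log pmol vs area gave pmol for 30 mm^2.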

| SMILES | C. albicans pmol/30 mm^2 zone |
| --- | --- |
| CC[C@H](C)[C@H](NC(=O)[C@H](CC(C)C)NC(=O)[C@@H](Cc1ccc2ccccc2c1)NC(=O)CNC(=O)[C@@H](NC(=O)[C@H](CCCCN)NC(=O)[C@H](CO)NC(=O)[C@@H](N)CCCCN)C(C)C)C(=O)N[C@@H](CCC(N)=O)C(=O)N[C@@H](CC(C)C)C(=O)N[C@@H](Cc1c[nH]c2ccccc12)C(=O)N[C@@H](Cc1c[nH]cn1)C(=O)N[C@@H](CCCCN)C(=O)N[C@@H](CCCCN)C(N)=O [XMP.243] (H-KSKVG[d2Nal]LIQLWHKK-NH2) | 716 pmol/30 mm^2 zone |
| CC[C@H](C)[C@H](NC(=O)[C@H](CC(C)C)NC(=O)[C@@H](Cc1ccc2ccccc2c1)NC(=O)CNC(=O)[C@@H](NC(=O)[C@H](CCCCN)NC(=O)[C@H](CO)NC(=O)[C@@H](N)CCCCN)C(C)C)C(=O)N[C@@H](CC(C)C)C(=O)N[C@@H](CC(C)C)C(=O)N[C@@H](Cc1c[nH]c2ccccc12)C(=O)N[C@@H](Cc1c[nH]cn1)C(=O)N[C@@H](CCCCN)C(=O)N[C@@H](CCCCN)C(N)=O [XMP.244] (H-KSKVG[d2Nal]LILLWHKK-NH2) | 859 pmol/30 mm^2 zone |
| CC[C@H](C)[C@H](NC(=O)[C@H](CC(C)C)NC(=O)[C@@H](C)NC(=O)CNC(=O)[C@@H](NC(=O)[C@H](CCCCN)NC(=O)[C@H](CO)NC(=O)[C@@H](N)CCCCN)C(C)C)C(=O)N[C@@H](CCC(N)=O)C(=O)N[C@@H](CC(C)C)C(=O)N[C@@H](Cc1ccccc1)C(=O)N[C@@H](Cc1c[nH]cn1)C(=O)N[C@@H](CCCCN)C(=O)N[C@@H](CCCCN)C(N)=O [XMP.252] (H-KSKVG[dA]LIQLFHKK-NH2) | 1,613 pmol/30 mm^2 zone |
| CC[C@H](C)[C@H](NC(=O)[C@H](CC(C)C)NC(=O)[C@H](NC(=O)CNC(=O)[C@@H](NC(=O)[C@H](CCCCN)NC(=O)[C@H](CO)NC(=O)[C@@H](N)CCCCN)C(C)C)C(C)C)C(=O)N[C@@H](CCC(N)=O)C(=O)N[C@@H](CC(C)C)C(=O)N[C@@H](Cc1ccccc1)C(=O)N[C@@H](Cc1c[nH]cn1)C(=O)N[C@@H](CCCCN)C(=O)N[C@@H](CCCCN)C(N)=O [XMP.253] (H-KSKVG[dV]LIQLFHKK-NH2) | 1,108 pmol/30 mm^2 zone |
| CC[C@H](C)[C@H](NC(=O)[C@H](CC(C)C)NC(=O)CCNC(=O)CNC(=O)[C@@H](NC(=O)[C@H](CCCCN)NC(=O)[C@H](CO)NC(=O)[C@@H](N)CCCCN)C(C)C)C(=O)N[C@@H](CCC(N)=O)C(=O)N[C@@H](CC(C)C)C(=O)N[C@@H](Cc1ccccc1)C(=O)N[C@@H](Cc1c[nH]cn1)C(=O)N[C@@H](CCCCN)C(=O)N[C@@H](CCCCN)C(N)=O [XMP.254] (H-KSKVG[βAla]LIQLFHKK-NH2) | 1,040 pmol/30 mm^2 zone |
| CC[C@H](NC(=O)CNC(=O)[C@@H](NC(=O)[C@H](CCCCN)NC(=O)[C@H](CO)NC(=O)[C@@H](N)CCCCN)C(C)C)C(=O)N[C@@H](CC(C)C)C(=O)N[C@H](C(=O)N[C@@H](CCC(N)=O)C(=O)N[C@@H](CC(C)C)C(=O)N[C@@H](Cc1ccccc1)C(=O)N[C@@H](Cc1c[nH]cn1)C(=O)N[C@@H](CCCCN)C(=O)N[C@@H](CCCCN)C(N)=O)[C@@H](C)CC [XMP.255] (H-KSKVG[Abu]LIQLFHKK-NH2) | 392 pmol/30 mm^2 zone |
| CC[C@H](C)[C@H](NC(=O)[C@H](CC(C)C)NC(=O)CCCNC(=O)CNC(=O)[C@@H](NC(=O)[C@H](CCCCN)NC(=O)[C@H](CO)NC(=O)[C@@H](N)CCCCN)C(C)C)C(=O)N[C@@H](CCC(N)=O)C(=O)N[C@@H](CC(C)C)C(=O)N[C@@H](Cc1ccccc1)C(=O)N[C@@H](Cc1c[nH]cn1)C(=O)N[C@@H](CCCCN)C(=O)N[C@@H](CCCCN)C(N)=O [XMP.256] (H-KSKVG[GABA]LIQLFHKK-NH2) | b (No detectable activity up to 5 μg/well) |
| CC[C@H](C)[C@H](NC(=O)[C@H](CC(C)C)NC(=O)C(C)(C)NC(=O)CNC(=O)[C@@H](NC(=O)[C@H](CCCCN)NC(=O)[C@H](CO)NC(=O)[C@@H](N)CCCCN)C(C)C)C(=O)N[C@@H](CCC(N)=O)C(=O)N[C@@H](CC(C)C)C(=O)N[C@@H](Cc1ccccc1)C(=O)N[C@@H](Cc1c[nH]cn1)C(=O)N[C@@H](CCCCN)C(=O)N[C@@H](CCCCN)C(N)=O [XMP.257] (H-KSKVG[Aib]LIQLFHKK-NH2) | 1,321 pmol/30 mm^2 zone |
| CC[C@H](C)[C@H](NC(=O)[C@H](CC(C)C)NC(=O)[C@@H](NC(=O)CNC(=O)[C@@H](NC(=O)[C@H](CCCCN)NC(=O)[C@H](CO)NC(=O)[C@@H](N)CCCCN)C(C)C)C(C)(C)C)C(=O)N[C@@H](CCC(N)=O)C(=O)N[C@@H](CC(C)C)C(=O)N[C@@H](Cc1ccccc1)C(=O)N[C@@H](Cc1c[nH]cn1)C(=O)N[C@@H](CCCCN)C(=O)N[C@@H](CCCCN)C(N)=O [XMP.258] (H-KSKVG[Tle]LIQLFHKK-NH2) | 880 pmol/30 mm^2 zone |
| CC[C@H](C)[C@H](NC(=O)[C@H](CC(C)C)NC(=O)CN(C)C(=O)CNC(=O)[C@@H](NC(=O)[C@H](CCCCN)NC(=O)[C@H](CO)NC(=O)[C@@H](N)CCCCN)C(C)C)C(=O)N[C@@H](CCC(N)=O)C(=O)N[C@@H](CC(C)C)C(=O)N[C@@H](Cc1ccccc1)C(=O)N[C@@H](Cc1c[nH]cn1)C(=O)N[C@@H](CCCCN)C(=O)N[C@@H](CCCCN)C(N)=O [XMP.259] (H-KSKVG[Sar]LIQLFHKK-NH2) | 2,117 pmol/30 mm^2 zone |
| CC[C@H](C)[C@H](NC(=O)[C@H](CC(C)C)NC(=O)[C@H](C(C)C)N(C)C(=O)CNC(=O)[C@@H](NC(=O)[C@H](CCCCN)NC(=O)[C@H](CO)NC(=O)[C@@H](N)CCCCN)C(C)C)C(=O)N[C@@H](CCC(N)=O)C(=O)N[C@@H](CC(C)C)C(=O)N[C@@H](Cc1ccccc1)C(=O)N[C@@H](Cc1c[nH]cn1)C(=O)N[C@@H](CCCCN)C(=O)N[C@@H](CCCCN)C(N)=O [XMP.260] (H-KSKVG[NMeV]LIQLFHKK-NH2) | 742 pmol/30 mm^2 zone |
| CC[C@H](C)[C@H](NC(=O)[C@H](CC(C)C)NC(=O)[C@H](CC(C)C)N(C)C(=O)CNC(=O)[C@@H](NC(=O)[C@H](CCCCN)NC(=O)[C@H](CO)NC(=O)[C@@H](N)CCCCN)C(C)C)C(=O)N[C@@H](CCC(N)=O)C(=O)N[C@@H](CC(C)C)C(=O)N[C@@H](Cc1ccccc1)C(=O)N[C@@H](Cc1c[nH]cn1)C(=O)N[C@@H](CCCCN)C(=O)N[C@@H](CCCCN)C(N)=O [XMP.261] (H-KSKVG[NMeL]LIQLFHKK-NH2) | 867 pmol/30 mm^2 zone |
| CC[C@H](C)[C@H](NC(=O)[C@H](CC(C)C)NC(=O)[C@H](Cc1c[nH]c2ccccc12)NC(=O)[C@@H](N)CCCCN)C(=O)N[C@@H](CCC(N)=O)C(=O)N[C@@H](CC(C)C)C(=O)N[C@@H](Cc1ccccc1)C(=O)N[C@@H](Cc1c[nH]cn1)C(=O)N[C@@H](CCCCN)C(=O)N[C@@H](CCCCN)C(N)=O [XMP.293] | 1,156 pmol/30 mm^2 zone |
| CC[C@H](C)[C@H](NC(=O)[C@H](CC(C)C)NC(=O)[C@H](Cc1c[nH]c2ccccc12)NC(=O)[C@@H](N)CCCCN)C(=O)N[C@@H](CCC(N)=O)C(=O)N[C@@H](CC(C)C)C(=O)N[C@@H](Cc1ccccc1)C(=O)N[C@@H](Cc1c[nH]cn1)C(=O)N[C@@H](CCCCN)C(N)=O [XMP.297] | 1,817 pmol/30 mm^2 zone |

Same assay, conditions: pmoles of peptide added to well to achieve a 30 mm^2 zone, PROBIT analysis; crude or purified (P′) peptide; listed as XMP.293P′

| SMILES | C. albicans pmol/30 mm^2 zone [pmol/30 mm^2 zone] |
| --- | --- |
| CC[C@H](C)[C@H](NC(=O)[C@H](CC(C)C)NC(=O)[C@H](Cc1c[nH]c2ccccc12)NC(=O)[C@@H](N)CCCCN)C(=O)N[C@@H](CCC(N)=O)C(=O)N[C@@H](CC(C)C)C(=O)N[C@@H](Cc1ccccc1)C(=O)N[C@@H](Cc1c[nH]cn1)C(=O)N[C@@H](CCCCN)C(=O)N[C@@H](CCCCN)C(N)=O [XMP.293] | 215 |

Same assay, conditions: pmoles of peptide added to well to achieve a 30 mm^2 zone, PROBIT analysis; crude or purified (P′) peptide; listed as XMP.297P′

| SMILES | C. albicans pmol/30 mm^2 zone [pmol/30 mm^2 zone] |
| --- | --- |
| CC[C@H](C)[C@H](NC(=O)[C@H](CC(C)C)NC(=O)[C@H](Cc1c[nH]c2ccccc12)NC(=O)[C@@H](N)CCCCN)C(=O)N[C@@H](CCC(N)=O)C(=O)N[C@@H](CC(C)C)C(=O)N[C@@H](Cc1ccccc1)C(=O)N[C@@H](Cc1c[nH]cn1)C(=O)N[C@@H](CCCCN)C(N)=O [XMP.297] | 564 |
